Measured values as given in ChEMBL document CHEMBL1158264, “DNA topoisomerase I inhibitors: cytotoxic flavones from Lethedon tannaensis” (J Nat Prod, 1996).
≈ marks a conversion by molar mass, not a printed value. Calls of active or inactive are those of the source. The rule behind the calls is not given here.

Assays:
KB = test: Cytotoxicity against human KB cells; assay type: functional, cell-based
P388 [1] = test: Cytotoxicity against mouse P388 cells at 100 ug/mL; assay type: functional, cell-based
Bos taurus [2] = species on record: Bos taurus; test: Inhibition of calf thymus tubulin assembly
Bos taurus [3] = species on record: Bos taurus; test: Inhibition of calf thymus DNA topoisomerase 1 assessed as minimum efficient dose
[4] = target: DNA topoisomerase 2-alpha (Homo sapiens) (UniProt P11388); test: Inhibition of DNA topoisomerase 2
[5] = target: T1, DNA topoisomerase 1 (Homo sapiens) (UniProt P11387); test: Inhibition of DNA topoisomerase 1
T1 sequence (whole entry): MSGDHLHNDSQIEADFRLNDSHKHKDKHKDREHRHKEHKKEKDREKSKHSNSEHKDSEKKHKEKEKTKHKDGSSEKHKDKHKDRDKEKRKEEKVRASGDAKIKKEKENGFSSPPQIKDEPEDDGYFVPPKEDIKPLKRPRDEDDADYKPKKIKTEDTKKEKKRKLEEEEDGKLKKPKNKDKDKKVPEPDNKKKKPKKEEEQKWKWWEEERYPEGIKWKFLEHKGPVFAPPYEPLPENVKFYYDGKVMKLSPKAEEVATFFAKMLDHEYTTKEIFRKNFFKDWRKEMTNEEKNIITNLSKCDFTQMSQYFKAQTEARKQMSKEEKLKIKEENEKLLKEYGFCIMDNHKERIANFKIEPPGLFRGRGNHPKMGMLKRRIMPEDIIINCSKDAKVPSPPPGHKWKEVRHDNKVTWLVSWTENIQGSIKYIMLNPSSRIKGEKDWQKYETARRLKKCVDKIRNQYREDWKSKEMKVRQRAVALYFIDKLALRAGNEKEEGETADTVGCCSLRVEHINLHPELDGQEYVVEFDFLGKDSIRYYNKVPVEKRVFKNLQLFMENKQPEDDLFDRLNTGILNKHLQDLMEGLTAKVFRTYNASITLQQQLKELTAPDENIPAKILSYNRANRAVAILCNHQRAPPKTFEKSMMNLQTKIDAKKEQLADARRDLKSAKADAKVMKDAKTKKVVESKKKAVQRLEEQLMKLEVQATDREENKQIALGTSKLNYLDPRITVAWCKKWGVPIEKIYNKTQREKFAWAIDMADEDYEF

P388 [6] = test: Cytotoxicity against mouse P388 cells; assay type: functional, cell-based

DNA topoisomerase 2-alpha (Homo sapiens), sequence (P11388 whole entry): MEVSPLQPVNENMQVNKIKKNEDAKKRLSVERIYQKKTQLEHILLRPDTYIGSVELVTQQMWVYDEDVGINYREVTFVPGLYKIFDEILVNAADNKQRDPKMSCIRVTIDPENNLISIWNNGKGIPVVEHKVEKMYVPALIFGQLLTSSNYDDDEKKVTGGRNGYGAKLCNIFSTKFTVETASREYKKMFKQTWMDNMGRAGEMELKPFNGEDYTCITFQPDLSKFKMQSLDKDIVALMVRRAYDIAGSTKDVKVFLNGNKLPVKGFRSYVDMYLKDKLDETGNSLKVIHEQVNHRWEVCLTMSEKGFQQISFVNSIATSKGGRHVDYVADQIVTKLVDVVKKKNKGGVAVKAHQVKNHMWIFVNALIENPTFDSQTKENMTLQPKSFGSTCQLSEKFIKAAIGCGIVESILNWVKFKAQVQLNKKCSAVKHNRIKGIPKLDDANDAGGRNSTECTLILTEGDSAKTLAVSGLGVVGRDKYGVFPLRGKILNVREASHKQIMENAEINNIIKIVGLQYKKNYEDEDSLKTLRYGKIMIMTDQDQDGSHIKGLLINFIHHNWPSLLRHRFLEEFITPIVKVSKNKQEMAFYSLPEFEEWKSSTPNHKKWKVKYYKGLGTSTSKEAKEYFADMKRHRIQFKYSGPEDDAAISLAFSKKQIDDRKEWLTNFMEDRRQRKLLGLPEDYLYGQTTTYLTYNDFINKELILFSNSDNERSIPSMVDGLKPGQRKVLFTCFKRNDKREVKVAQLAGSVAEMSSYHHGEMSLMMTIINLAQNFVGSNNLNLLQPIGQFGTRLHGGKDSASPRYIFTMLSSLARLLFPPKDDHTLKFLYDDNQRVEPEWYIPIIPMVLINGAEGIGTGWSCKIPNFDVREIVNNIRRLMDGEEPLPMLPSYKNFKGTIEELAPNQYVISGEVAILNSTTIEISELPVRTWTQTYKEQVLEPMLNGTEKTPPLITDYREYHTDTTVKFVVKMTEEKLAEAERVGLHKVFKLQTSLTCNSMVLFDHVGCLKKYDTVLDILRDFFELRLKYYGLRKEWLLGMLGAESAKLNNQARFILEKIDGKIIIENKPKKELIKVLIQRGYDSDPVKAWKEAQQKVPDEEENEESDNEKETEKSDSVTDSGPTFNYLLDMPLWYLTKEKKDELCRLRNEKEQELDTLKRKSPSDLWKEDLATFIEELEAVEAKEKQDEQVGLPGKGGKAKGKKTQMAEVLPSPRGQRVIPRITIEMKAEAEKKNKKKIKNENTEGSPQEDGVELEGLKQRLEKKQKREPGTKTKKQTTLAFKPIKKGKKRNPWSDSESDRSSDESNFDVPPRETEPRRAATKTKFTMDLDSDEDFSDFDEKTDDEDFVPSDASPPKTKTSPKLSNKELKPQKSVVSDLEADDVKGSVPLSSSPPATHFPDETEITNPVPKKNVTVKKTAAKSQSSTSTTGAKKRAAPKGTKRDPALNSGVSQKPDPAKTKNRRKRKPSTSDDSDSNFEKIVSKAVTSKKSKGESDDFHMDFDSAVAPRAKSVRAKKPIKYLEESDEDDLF

Row | Compound | IC50 (KB) | Activity (P388 [1]) | MED (Bos taurus [3]) | also measured
1 | COc1cc(O)c2c(=O)cc(-c3ccc(OC)c(OC)c3)oc2c1 | 19.4 µg/mL (≈ 59.1 µM) | inactive | – | –
2 | COc1cc(O)c2c(=O)cc(-c3cc(OC)c(O)c(OC)c3)oc2c1 | 7.7 µg/mL (≈ 22.4 µM) | inactive | 1 µg/mL | Activity (Bos taurus [2]): inactive
3 | O=c1c(O)c(-c2cc(O)c(O)c(O)c2)oc2cc(O)cc(O)c12 | – | – | – | Activity [4]: Active; Activity [5]: Active
4 | O=c1c(O)c(-c2ccc(O)c(O)c2)oc2cc(O)cc(O)c12 | – | – | – | Activity [4]: Active; Activity [5]: Active
5 | O=c1c(O)c(-c2ccc(O)c(O)c2)oc2cc(O)ccc12 | – | – | – | Activity [4]: Active; Activity [5]: Active
6 | CC[C@@]1(O)C(=O)OCc2c1cc1n(c2=O)Cc2cc3ccccc3nc2-1 [CAMPTOTHECIN] | 0.01 µg/mL (≈ 0.0287 µM) | – | 0.03 µg/mL | –
7 | COc1ccc(-c2oc3cc(O)c(OC)c(O)c3c(=O)c2OC)cc1O [CENTAUREIDIN] | 0.04 µg/mL (≈ 0.111 µM) | – | – | –
8 | COc1cc(O)c2c(=O)cc(-c3cc(OC)c(OC)c(OC)c3)oc2c1 [CORYMBOSIN] | 19.4 µg/mL (≈ 54.1 µM) | inactive | – | –
9 | COc1cccc2c1C(=O)c1c(O)c3c(c(O)c1C2=O)C[C@@](O)(C(=O)CO)C[C@@H]3O[C@H]1C[C@H](N)[C@H](O)[C@H](C)O1 [DOXORUBICIN] | 1.5 µg/mL (≈ 2.76 µM) | – | – | IC50 (P388 [6]): 0.005 µg/mL (≈ 0.0092 µM)
10 | COc1cc(O)c2c(=O)cc(-c3ccc(O)cc3)oc2c1 [GENKWANIN] | 8.7 µg/mL (≈ 30.6 µM) | – | > 10 µg/mL | IC50 (P388 [6]): 10 µg/mL (≈ 35.2 µM)
11 | COc1cc(O)c2c(=O)cc(-c3cc(O)c(OC)c(OC)c3)oc2c1 [LETHEDOCIN] | 16.4 µg/mL (≈ 47.6 µM) | inactive | – | –
12 | COc1cc(O)c2c(=O)cc(-c3ccc(O)c(OC)c3)oc2c1 [VELUTIN] | – | – | 0.1 µg/mL | Activity (Bos taurus [2]): inactive; IC50 (P388 [6]): 10 µg/mL (≈ 31.8 µM)
